Experimental data published in patent publication US11753407B2, “Compounds for treating spinal muscular atrophy” (PTC Therapeutics, Inc., priority 2012, dated 2023).

Columns and labels:
[1] = system: SMN2 minigene mRNA (SMN2-A minigene) in HEK293H cells; assay: SMN2 minigene mRNA splicing RT-qPCR assay in cultured cells; format: cell-based, human; settings: Homo sapiens, HEK293-H; concentration increasing full length SMN2 mRNA 1.5-fold relative to vehicle-treated cells; HEK293H cells with SMN2-A minigene, 24 hours, 7-point concentration data; read-out: EC1.5x for production of full length SMN2 mRNA
Method in brief: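 EC1.5× values derive from a 24 h treatment of SMN2-A minigene HEK293H cells and GAPDH-normalized RT-qPCR of exon 7-included minigene mRNA relative to vehicle-treated cells.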

[2] = system: Smn protein in SMA patient fibroblast cells (GM03813); assay: Smn protein assay in cultured cells (SMN HTRF); format: cell-based, human; settings: SMA patient fibroblast cells, 48 hours; for EC1.5x for Smn protein expression: 7-point concentration curve, SMN HTRF, concentration producing 1.5 times Smn protein vs DMSO vehicle control; for maximum fold (Fold) increase of Smn protein: 7-point concentration data, fold relative to vehicle control
Method in brief: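 Cells were cultured 72 h, seeded at 5,000/well and dosed with seven concentrations (3.16-fold apart) for 48 h. HTRF on lysates, read at 665 and 620 nm, gave blank-corrected ΔF values relative to DMSO. Potency is reported as EC1.5×, efficacy as maximal fold Smn increase.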

Compound | EC (1.5-fold increase) [1] [µM] | EC1.5x for Smn protein expression [2] | maximum fold (Fold) increase of Smn protein [2]
Cc1nc2ccc(-c3cc(=O)n4cc(C5=CCNCC5)ccc4n3)cc2o1 [Compound 302, 2-(2-methyl-1,3-benzoxazol-6-yl)-7-(1,2,3,6-tetrahydropyridin-4-yl)-4H-pyrido[1,2-a]pyrimidin-4-one] | < 0.1 | **** (an EC1.5x≤0.3 μM is indicated by four stars (****)) | ***** (a fold increase >1.65 is indicated by five stars (*****))
COc1ccc(-c2cc(=O)n3cc(OC4CCN(C)CC4)ccc3n2)cc1OC [Compound 235, 2-(3,4-dimethoxyphenyl)-7-[(1-methylpiperidin-4-yl)oxy]-4H-pyrido[1,2-a]pyrimidin-4-one] | 0.3 to 1 | ** (an EC1.5× between >1 μM and ≤3 μM is indicated by two stars (**)) | **** (a fold increase between >1.5 and ≤1.65 is indicated by four stars (****))
Cc1nc2c(F)cc(-c3cc(=O)n4cc(N5CCN(C)CC5)ccc4n3)cc2o1 [Compound 308, 2-(4-fluoro-2-methyl-1,3-benzoxazol-6-yl)-7-(4-methylpiperazin-1-yl)-4H-pyrido[1,2-a]pyrimidin-4-one] | < 0.1 | **** (an EC1.5x≤0.3 μM is indicated by four stars (****)) | ***** (a fold increase >1.65 is indicated by five stars (*****))
Cc1cn2cc(-c3cc(=O)n4cc(N5CCN6CCCC6(C)C5)ccc4n3)cc(C)c2n1 (centres unmarked) [Compound 821, 2-(2,8-dimethylimidazo[1,2-a]pyridin-6-yl)-7-(8a-methylhexahydropyrrolo[1,2-a]pyrazin-2(1H)-yl)-4H-pyrido[1,2-a]pyrimidin-4-one] | < 0.1 | **** (an EC1.5x≤0.3 μM is indicated by four stars (****)) | ***** (a fold increase >1.65 is indicated by five stars (*****))
Cc1cn2cc(-c3cc(=O)n4cc(N5CCN(C)CC5)ccc4n3)ccc2n1 [Compound 114, 2-(2-methylimidazo[1,2-a]pyridin-6-yl)-7-(4-methylpiperazin-1-yl)-4H-pyrido[1,2-a]pyrimidin-4-one] | 1 to 3 | – | *** (a fold increase between >1.35 and ≤1.5 is indicated by three stars (***))
COc1ccc(-c2cc(=O)n3cc(N4CCC(N)CC4)ccc3c2)cc1F [Compound 201, 7-(4-aminopiperidin-1-yl)-2-(3-fluoro-4-methoxyphenyl)-4H-quinolizin-4-one] | < 0.1 | *** (an EC1.5× between >0.3 μM and ≤1 μM is indicated by three stars (***)) | *** (a fold increase between >1.35 and ≤1.5 is indicated by three stars (***))
CCN1CC=C(c2cn3c(=O)cc(-c4ccc5c(cnn5C)c4)nc3cn2)CC1 [Compound 507, 7-(1-ethyl-1,2,3,6-tetrahydropyridin-4-yl)-2-(1-methyl-1H-indazol-5-yl)-4H-pyrazino[1,2-a]pyrimidin-4-one] | 0.1 to 0.3 | *** (an EC1.5× between >0.3 μM and ≤1 μM is indicated by three stars (***)) | **** (a fold increase between >1.5 and ≤1.65 is indicated by four stars (****))
CCc1cc(-c2cc(=O)n3cc(N4C[C@@H](C)N[C@@H](C)C4)ccc3n2)cn2cc(C)nc12 [Compound 675, 7-[(3R,5S)-3,5-dimethylpiperazin-1-yl]-2-(8-ethyl-2-methylimidazo[1,2-a]pyridin-6-yl)-4H-pyrido[1,2-a]pyrimidin-4-one] | < 0.1 | **** (an EC1.5x≤0.3 μM is indicated by four stars (****)) | ***** (a fold increase >1.65 is indicated by five stars (*****))
Cn1cc2cc(-c3cc(=O)n4nc(C5CCNCC5)ccc4n3)ccc2n1 [Compound 521, 2-(2-methyl-2H-indazol-5-yl)-7-(piperidin-4-yl)-4H-pyrimido[1,2-b]pyridazin-4-one] | 0.1 to 0.3 | **** (an EC1.5x≤0.3 μM is indicated by four stars (****)) | ***** (a fold increase >1.65 is indicated by five stars (*****))
Cc1cc(N2CCN[C@@H](C)C2)cn2c(=O)cc(-c3ccc4nn(C)cc4c3)nc12 [Compound 756, 9-methyl-2-(2-methyl-2H-indazol-5-yl)-7-[(3S)-3-methylpiperazin-1-yl]-4H-pyrido[1,2-a]pyrimidin-4-one] | < 0.1 | **** (an EC1.5x≤0.3 μM is indicated by four stars (****)) | ***** (a fold increase >1.65 is indicated by five stars (*****))
Cc1cn2cc(-c3cc(=O)n4cc(C5CCN(C)CC5)ccc4n3)cc(F)c2n1 [Compound 810, 2-(8-fluoro-2-methylimidazo[1,2-a]pyridin-6-yl)-7-(1-methylpiperidin-4-yl)-4H-pyrido[1,2-a]pyrimidin-4-one] | < 0.1 | **** (an EC1.5x≤0.3 μM is indicated by four stars (****)) | ***** (a fold increase >1.65 is indicated by five stars (*****))
Cc1cn2cc(-c3cc(=O)n4cc(N5CCN[C@H](C)C5)ccc4n3)cc(F)c2n1 [Compound 270, 2-(8-fluoro-2-methylimidazo[1,2-a]pyridin-6-yl)-7-[(3R)-3-methylpiperazin-1-yl]-4H-pyrido[1,2-a]pyrimidin-4-one] | < 0.1 | **** (an EC1.5x≤0.3 μM is indicated by four stars (****)) | **** (a fold increase between >1.5 and ≤1.65 is indicated by four stars (****))
COc1ccc(-c2cc(=O)n3cc(N4CCN5CCC[C@@H]5C4)cc(C)c3n2)cc1OC [Compound 414, 2-(3,4-dimethoxyphenyl)-7-[(8aR)-hexahydropyrrolo[1,2-a]pyrazin-2(1H)-yl]-9-methyl-4H-pyrido[1,2-a]pyrimidin-4-one] | < 0.1 | *** (an EC1.5× between >0.3 μM and ≤1 μM is indicated by three stars (***)) | ***** (a fold increase >1.65 is indicated by five stars (*****))
CCc1nc(C)cn2nc(-c3cc(=O)n4cc(N5CCN6CCC[C@@H]6C5)ccc4n3)cc12 [Compound 813, 2-(4-ethyl-6-methylpyrazolo[1,5-a]pyrazin-2-yl)-7-[(8aR)-hexahydropyrrolo[1,2-a]pyrazin-2(1H)-yl]-4H-pyrido[1,2-a]pyrimidin-4-one] | < 0.1 | **** (an EC1.5x≤0.3 μM is indicated by four stars (****)) | ***** (a fold increase >1.65 is indicated by five stars (*****))
CCc1cc(-c2cc(=O)n3cc(N4CCN(C5CCC5)[C@@H](C)C4)ccc3n2)cn2cc(C)nc12 [Compound 652, 7-[(3S)-4-cyclobutyl-3-methylpiperazin-1-yl]-2-(8-ethyl-2-methylimidazo[1,2-a]pyridin-6-yl)-4H-pyrido[1,2-a]pyrimidin-4-one] | < 0.1 | **** (an EC1.5x≤0.3 μM is indicated by four stars (****)) | ***** (a fold increase >1.65 is indicated by five stars (*****))
Cc1cn2nc(-c3cc(=O)n4nc(C5CCNCC5)ccc4n3)cc2c(C)n1 [Compound 512, 2-(4,6-dimethylpyrazolo[1,5-a]pyrazin-2-yl)-7-(piperidin-4-yl)-4H-pyrimido[1,2-b]pyridazin-4-one] | < 0.1 | **** (an EC1.5x≤0.3 μM is indicated by four stars (****)) | ***** (a fold increase >1.65 is indicated by five stars (*****))
Cc1cn2nc(-c3cc(=O)n4cc(N5CCNCC5)ccc4n3)cc2c(C)n1 [Compound 120, 2-(4,6-dimethylpyrazolo[1,5-a]pyrazin-2-yl)-7-(piperazin-1-yl)-4H-pyrido[1,2-a]pyrimidin-4-one] | < 0.1 | **** (an EC1.5x≤0.3 μM is indicated by four stars (****)) | ***** (a fold increase >1.65 is indicated by five stars (*****))
Cc1nc2ccc(-c3cc(=O)n4cc(N5CCN(C)CC5)ccc4c3)cc2o1 [Compound 323, 2-(2-methyl-1,3-benzoxazol-6-yl)-7-(4-methylpiperazin-1-yl)-4H-quinolizin-4-one] | 0.1 to 0.3 | ** (an EC1.5× between >1 μM and ≤3 μM is indicated by two stars (**)) | *** (a fold increase between >1.35 and ≤1.5 is indicated by three stars (***))
